For this assay, the target named is 5-HT2AR (Homo sapiens, UniProt P28223). The assay can be described thus: Inhibition of 5-HT. Format: cell-based. To be noted: inhibition of 1 μM 5-HT-evoked Cai2+ release; compared with parent (+)-M100907.

Experimental findings from PMC6613932 (Bioorganic & medicinal chemistry letters, 2018) are described below.

5-HT2AR, sequence (P28223 whole entry): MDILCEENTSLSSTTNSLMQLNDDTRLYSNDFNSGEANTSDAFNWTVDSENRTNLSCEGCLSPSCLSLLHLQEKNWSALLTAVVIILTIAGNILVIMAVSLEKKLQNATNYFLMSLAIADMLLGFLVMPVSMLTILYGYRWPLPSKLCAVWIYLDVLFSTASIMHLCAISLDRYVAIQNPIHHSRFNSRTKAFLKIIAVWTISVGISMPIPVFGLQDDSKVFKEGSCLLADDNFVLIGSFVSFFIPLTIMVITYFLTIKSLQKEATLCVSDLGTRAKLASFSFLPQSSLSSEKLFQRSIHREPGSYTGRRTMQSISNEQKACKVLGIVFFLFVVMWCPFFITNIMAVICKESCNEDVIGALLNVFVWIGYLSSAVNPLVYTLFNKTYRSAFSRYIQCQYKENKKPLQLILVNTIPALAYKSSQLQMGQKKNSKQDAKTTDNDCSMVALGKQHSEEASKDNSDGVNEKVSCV

As to `COc1c(OCCOCCN=[N+]=[N-])cccc1[C@H](O)C1CCN(CCc2ccc(F)cc2)CC1` [Compound 4], the “antagonist activity / potency in words” value was “retained antagonist activity”.

With `C#CCOCCOCCOc1cccc([C@H](O)C2CCN(CCc3ccc(F)cc3)CC2)c1OC` [Compound 5], the “antagonist activity / potency in words” value is on record as “slightly lower potency”.

Consider `COc1c(OCCOCCOc2cn(CCOCCOc3cccc([C@H](O)C4CCN(CCc5ccc(F)cc5)CC4)c3OC)nn2)cccc1[C@H](O)C1CCN(CCc2ccc(F)cc2)CC1` [Compound 15], for which the “antagonist activity / potency in words” value is given as “slightly lower potency”.
